This assay deals with T1, FAAH (Rattus norvegicus, UniProt P97612).
T1 construct: Preparation of Rat Brain Membranes Preparations (FAAH Enzyme Solution); from tissue; host or cells: rat cerebrum (brain membrane preparation)
T1 sequence (P97612 1-579): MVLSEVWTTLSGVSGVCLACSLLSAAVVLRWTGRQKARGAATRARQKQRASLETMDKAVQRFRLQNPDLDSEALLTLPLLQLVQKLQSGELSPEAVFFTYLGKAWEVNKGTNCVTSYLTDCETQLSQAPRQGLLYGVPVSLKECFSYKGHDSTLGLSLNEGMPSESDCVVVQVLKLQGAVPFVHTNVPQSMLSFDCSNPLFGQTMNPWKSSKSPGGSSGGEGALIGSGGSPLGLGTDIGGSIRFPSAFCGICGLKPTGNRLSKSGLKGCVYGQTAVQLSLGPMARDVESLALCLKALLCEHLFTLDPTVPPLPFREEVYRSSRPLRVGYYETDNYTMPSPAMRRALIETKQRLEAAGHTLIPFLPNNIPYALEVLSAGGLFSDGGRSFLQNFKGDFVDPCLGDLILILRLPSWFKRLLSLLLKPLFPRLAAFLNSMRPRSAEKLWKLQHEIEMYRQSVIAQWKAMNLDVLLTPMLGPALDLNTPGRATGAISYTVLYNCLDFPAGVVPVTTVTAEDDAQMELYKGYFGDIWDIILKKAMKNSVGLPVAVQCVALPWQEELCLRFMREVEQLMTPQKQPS
Kind of assay: Determination of FAAH inhibitory activity in rat (rat brain membrane preparations, [3H]-anandamide hydrolysis). The conditions noted are these: for inhibition at 0.1 µM: read-out: FAAH Inhibition, Inhibition Rate at 100 nM; for IC50: test substance 0.1 nM to 1 μM. In kind it is biochemical. Put shortly:
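Rat cerebrum membranes (100 μg/mL protein) preincubated 10 min at 37 °C with compound (1% DMSO) in pH 7.6 Tris buffer with 1.5% BSA. Substrate 2 nM [3H]-anandamide plus 2 μM anandamide added for 10 min at 37 °C. [3H]-ethanolamine in the aqueous phase after chloroform/methanol extraction was scintillation counted; IC50 over 0.1 nM–1 μM.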

[1] abbreviates: rat brain membrane preparations, 100 nM test substance.
The mark [2] stands for this setting: rat brain membrane preparations, read-out: FAAH Inhibition IC50.

Where two headings read alike, the source gives them in different places.

As for `COc1cccc(-c2ncc3c(n2)n(C)c(=O)n3C(=O)N2CCC(=Cc3ccc(Cl)cc3)CC2)c1` [Example 102, 7-{[4-(4-Chlorobenzylidene)piperidin-1-yl]carbonyl}-2-(3-methoxyphenyl)-9-methyl-7,9-dihydro-8H-purine-8-one], the inhibition (as a rule, the change of the read-out against control, counted positive when it falls) at 0.1 µM under setting [1] came to 101%. For the same compound, the IC50 (as a rule, the concentration that inhibits the measured activity by half) under setting [2] came to 5 nM.
As to `COc1cccc(-c2ncc3c(n2)n(C)c(=O)n3C(=O)N(C)CCCl)c1` [Example 103, N-(2-Chloroethyl)-2-(3-methoxyphenyl)-N,9-dimethyl-8-oxo-8,9-dihydro-7H-purine-7-carboxamide], the inhibition at 0.1 µM was determined as 100%. This compound also returned an IC50 (FAAH Inhibition IC50, rat brain membrane preparations) of 7 nM.
Take `COc1cccc(-c2ncc3c(n2)n(C)c(=O)n3C(=O)N(C)CCc2nc(-c3ccccc3)no2)c1` [Example 104, 2-(3-Methoxyphenyl)-N,9-dimethyl-8-oxo-N-[2-(3-phenyl-1,2,4-oxadiazol-5-yl)ethyl]-8,9-dihydro-7H-purine-7-carboxamide]: under setting [1], the inhibition at 0.1 µM came to 101%. Further, the IC50 under setting [2] is 3 nM.
Turning to `COc1cccc(-c2ncc3c(n2)n(C)c(=O)n3C(=O)N(C)CCc2ccc(Cl)c(Cl)c2)c1` [Example 105, N-[2-(3,4-Dichlorophenyl)ethyl]-2-(3-methoxyphenyl)-N,9-dimethyl-8-oxo-8,9-dihydro-7H-purine-7-carboxamide], the inhibition at 0.1 µM under setting [1] amounted to 108%. In addition, the IC50 under setting [2] was found to be 1 nM.
Take `COc1cccc(-c2ncc3c(n2)n(C)c(=O)n3C(=O)N(C)CCC2=CCCCC2)c1` [Example 106, N-[2-(Cyclohex-1-en-1-yl)ethyl]-2-(3-methoxyphenyl)-N,9-dimethyl-8-oxo-8,9-dihydro-7H-purine-7-carboxamide]: the inhibition at 0.1 µM under setting [1] is 110%. Besides, the IC50 under setting [2] worked out at 1 nM.
Turning to `CCCN(C)C(=O)n1c(=O)n(C)c2nc(-c3cccc(OC)c3)ncc21` [Example 107, 2-(3-Methoxyphenyl)-N,9-dimethyl-8-oxo-N-propyl-8,9-dihydro-7H-purine-7-carboxamide], under setting [1], the inhibition at 0.1 µM stood at 101%. Also, the IC50 under setting [2] was 7 nM.
In the case of `COc1cccc(-c2ncc3c(n2)n(C)c(=O)n3C(=O)N(C)CC(C)C)c1` [Example 108, 2-(3-Methoxyphenyl)-N,9-dimethyl-N-(2-methylpropyl)-8-oxo-8,9-dihydro-7H-purine-7-carboxamide], the inhibition at 0.1 µM under setting [1] worked out at 94%. The IC50 under setting [2] came out at 22 nM.
For the compound `COc1cccc(-c2ncc3c(n2)n(C)c(=O)n3C(=O)N(C)CCC2CCCCC2)c1` [Example 109, N-(2-Cyclohexylethyl)-2-(3-methoxyphenyl)-N,9-dimethyl-8-oxo-8,9-dihydro-7H-purine-7-carboxamide], the inhibition at 0.1 µM under setting [1] was 103%. In addition, the IC50 under setting [2] amounted to 2 nM.
Take `COc1cccc(-c2ncc3c(n2)n(C)c(=O)n3C(=O)N(C)CCc2ccc(Cl)cc2Cl)c1` [Example 110, N-[2-(2,4-Dichlorophenyl)ethyl]-2-(3-methoxyphenyl)-N,9-dimethyl-8-oxo-8,9-dihydro-7H-purine-7-carboxamide]: under setting [1], the inhibition at 0.1 µM was 103%. The IC50 under setting [2] is 3 nM.
Consider `COc1cccc(-c2ncc3c(n2)n(C)c(=O)n3C(=O)N(C)CCN2CCOCC2)c1` [Example 111], for which the inhibition at 0.1 µM under setting [1] is 46%. Moreover, the IC50 under setting [2] came out at 60 nM.
For `COc1cccc(-c2ncc3c(n2)n(C)c(=O)n3C(=O)N2CCC(/C=C/c3ccc(Cl)cc3)CC2)c1` [Example 112, 7-({4-[(E)-2-(4-Chlorophenyl)ethenyl]piperidin-1-yl}carbonyl)-2-(3-methoxyphenyl)-9-methyl-7,9-dihydro-8H-purine-8-one], under setting [1], the inhibition at 0.1 µM is 103%. Under setting [2], the IC50 amounted to 4 nM.
As for `COc1cccc(-c2ncc3c(n2)n(C)c(=O)n3C(=O)N(C)CCc2ccc(N(C)C)cc2)c1` [Example 113, N-{2-[4-(Dimethylamino)phenyl]ethyl}-2-(3-methoxyphenyl)-N,9-dimethyl-8-oxo-8,9-dihydro-7H-purine-7-carboxamide], under setting [1], the inhibition at 0.1 µM came out at 103%. Further, the IC50 under setting [2] amounted to 3 nM.
With `COc1cccc(-c2ncc3c(n2)n(C)c(=O)n3C(=O)N(C)CCc2ccccn2)c1` [Example 114, 2-(3-Methoxyphenyl)-N,9-dimethyl-8-oxo-N-[2-(pyridin-2-yl)ethyl]-8,9-dihydro-7H-purine-7-carboxamide], the inhibition at 0.1 µM under setting [1] turned out to be 103%. In addition, under setting [2], the IC50 was determined as 2 nM.
In the same order, the values of `COc1cccc(-c2ncc3c(n2)n(C)c(=O)n3C(=O)N(C)CCc2ccncc2)c1` [Example 115, 2-(3-Methoxyphenyl)-N,9-dimethyl-8-oxo-N-[2-(pyridin-4-yl)ethyl]-8,9-dihydro-7H-purine-7-carboxamide] are 103% and 5 nM.
In the same order, the values of `COc1cccc(-c2ncc3c(n2)n(C)c(=O)n3C(=O)N(C)CCOCC2CC2)c1` [Example 116, N-[2-(Cyclopropylmethoxy)ethyl]-2-(3-methoxyphenyl)-N,9-dimethyl-8-oxo-8,9-dihydro-7H-purine-7-carboxamide] are 110% and 2 nM.
Regarding `COc1cccc(-c2ncc3c(n2)n(C)c(=O)n3C(=O)N(C)CCC2CCOCC2)c1` [Example 117, 2-(3-Methoxyphenyl)-N,9-dimethyl-8-oxo-N-[2-(tetrahydro-2H-pyran-4-yl)ethyl]-8,9-dihydro-7H-purine-7-carboxamide], the inhibition at 0.1 µM under setting [1] came out at 107%. The IC50 under setting [2] was found to be 4 nM.
On the same counts, the results for `COc1ccc(CCC2CCN(C(=O)n3c(=O)n(C)c4nc(-c5cccc(OC)c5)ncc43)CC2)cc1` [Example 118, 2-(3-Methoxyphenyl)-7-({4-[2-(4-methoxyphenyl)ethyl]piperidin-1-yl}carbonyl)-9-methyl-7,9-dihydro-8H-purine-8-one] are 103% and 5 nM.
Take `COCCC1CCN(C(=O)n2c(=O)n(C)c3nc(-c4cccc(OC)c4)ncc32)CC1` [Example 119, 7-{[4-(2-Methoxyethyl)piperidin-1-yl]carbonyl}-2-(3-methoxyphenyl)-9-methyl-7,9-dihydro-8H-purine-8-one]: the inhibition at 0.1 µM under setting [1] turned out to be 100%. Also, the IC50 under setting [2] was found to be 7 nM.
Consider `Cn1c(=O)n(C(=O)N2CCN(c3ccccc3)CC2)c2cnc(-c3ccccc3)nc21` [Example 120, 9-Methyl-2-phenyl-7-[(4-phenylpiperazin-1-yl)carbonyl]-7,9-dihydro-8H-purine-8-one], for which, under setting [1], the inhibition at 0.1 µM came out at 101%. For the same compound, under setting [2], the IC50 amounted to 11 nM.
In the same order, the values of `COc1cccc(N2CCN(C(=O)n3c(=O)n(C)c4nc(-c5ccccc5)ncc43)CC2)c1` [Example 121, 7-{[4-(3-Methoxyphenyl)piperazin-1-yl]carbonyl}-9-methyl-2-phenyl-7,9-dihydro-8H-purine-8-one] are 98% and 42 nM.
Consider `COc1ccccc1N1CCN(C(=O)n2c(=O)n(C)c3nc(-c4ccccc4)ncc32)CC1` [Example 122, 7-{[4-(2-Methoxyphenyl)piperazin-1-yl]carbonyl}-9-methyl-2-phenyl-7,9-dihydro-8H-purine-8-one], for which the inhibition at 0.1 µM under setting [1] is 97%. For the same compound, the IC50 under setting [2] was found to be 35 nM.
As to `Cn1c(=O)n(C(=O)N2CCN(c3ccc(F)cc3)CC2)c2cnc(-c3ccccc3)nc21` [Example 123, 7-{[4-(4-Fluorophenyl)piperazin-1-yl]carbonyl}-9-methyl-2-phenyl-7,9-dihydro-8H-purine-8-one], under setting [1], the inhibition at 0.1 µM was found to be 101%. Also, under setting [2], the IC50 is 4 nM.
Regarding `Cn1c(=O)n(C(=O)N2CCN(c3cccc(F)c3)CC2)c2cnc(-c3ccccc3)nc21` [Example 124, 7-{[4-(3-Fluorophenyl)piperazin-1-yl]carbonyl}-9-methyl-2-phenyl-7,9-dihydro-8H-purine-8-one], the inhibition at 0.1 µM under setting [1] amounted to 101%. The IC50 under setting [2] came to 6 nM.
With `Cn1c(=O)n(C(=O)N2CCN(c3ccccc3F)CC2)c2cnc(-c3ccccc3)nc21` [Example 125, 7-{[4-(2-Fluorophenyl)piperazin-1-yl]carbonyl}-9-methyl-2-phenyl-7,9-dihydro-8H-purine-8-one], the inhibition at 0.1 µM under setting [1] was found to be 96%. Besides, under setting [2], the IC50 was 30 nM.
In the same order, the values of `Cn1c(=O)n(C(=O)N2CCN(c3ccc(Cl)cc3)CC2)c2cnc(-c3ccccc3)nc21` [Example 126, 7-{[4-(4-Chlorophenyl)piperazin-1-yl]carbonyl}-9-methyl-2-phenyl-7,9-dihydro-8H-purine-8-one] are 99% and 7 nM.
Take `Cn1c(=O)n(C(=O)N2CCN(c3ccccc3Cl)CC2)c2cnc(-c3ccccc3)nc21` [Example 127, 7-{[4-(2-Chlorophenyl)piperazin-1-yl]carbonyl}-9-methyl-2-phenyl-7,9-dihydro-8H-purine-8-one]: the inhibition at 0.1 µM under setting [1] was found to be 94%. The IC50 under setting [2] amounted to 50 nM.

For the origin of these results see patent publication US8735406B2, “8-oxodihydropurine derivative” (Dainippon Sumitomo Pharma Co., Ltd., priority 2009, dated 2014).
